pIC50: −log10 of the molar value. Where two headings read alike, the source gives them in different places.
Legend:
human JAK3 [1] = target: T1, human JAK3 (Homo sapiens, UniProt P52333); assay: JAK3 kinase inhibition (Table 1 IC50, immune complex kinase assay); type: biochemical; conditions: for pIC50: Table 1, measured inhibition values for JAK3 kinase
T1 construct: KL-2 EBV-transformed human lymphoblastoid B cells (native JAK3 kinase assays); endogenous in cells; host or cells: KL-2 EBV-transformed human lymphoblastoid B cell line
T1 sequence (P52333 1-1124): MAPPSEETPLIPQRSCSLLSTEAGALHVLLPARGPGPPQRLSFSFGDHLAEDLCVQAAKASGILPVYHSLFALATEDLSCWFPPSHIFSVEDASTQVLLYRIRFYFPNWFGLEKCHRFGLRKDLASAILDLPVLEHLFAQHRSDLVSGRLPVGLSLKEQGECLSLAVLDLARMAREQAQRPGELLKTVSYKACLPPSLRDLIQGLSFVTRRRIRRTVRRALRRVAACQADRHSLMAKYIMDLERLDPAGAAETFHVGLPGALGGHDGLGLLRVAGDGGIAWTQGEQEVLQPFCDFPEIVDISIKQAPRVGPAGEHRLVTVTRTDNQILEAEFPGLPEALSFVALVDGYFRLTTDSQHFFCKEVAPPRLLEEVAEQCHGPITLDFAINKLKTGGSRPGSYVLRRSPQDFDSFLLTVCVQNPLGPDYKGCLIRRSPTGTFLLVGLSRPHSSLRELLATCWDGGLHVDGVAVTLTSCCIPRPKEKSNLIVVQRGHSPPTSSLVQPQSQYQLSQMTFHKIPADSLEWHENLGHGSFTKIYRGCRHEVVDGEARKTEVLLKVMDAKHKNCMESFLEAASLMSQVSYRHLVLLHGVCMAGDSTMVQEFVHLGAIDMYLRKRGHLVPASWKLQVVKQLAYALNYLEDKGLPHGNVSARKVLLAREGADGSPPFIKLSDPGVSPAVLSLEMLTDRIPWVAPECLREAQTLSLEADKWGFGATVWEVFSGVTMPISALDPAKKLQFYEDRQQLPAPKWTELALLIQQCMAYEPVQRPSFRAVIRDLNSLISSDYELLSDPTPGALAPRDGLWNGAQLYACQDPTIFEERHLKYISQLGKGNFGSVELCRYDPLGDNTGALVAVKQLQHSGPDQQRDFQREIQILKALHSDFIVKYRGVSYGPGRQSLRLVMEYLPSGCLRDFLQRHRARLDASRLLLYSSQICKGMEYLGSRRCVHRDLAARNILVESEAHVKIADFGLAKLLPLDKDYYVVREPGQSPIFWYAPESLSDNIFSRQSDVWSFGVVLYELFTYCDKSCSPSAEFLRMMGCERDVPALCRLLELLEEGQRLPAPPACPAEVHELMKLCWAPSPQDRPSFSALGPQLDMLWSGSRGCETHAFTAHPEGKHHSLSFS
Protocol: Immune Complex Kinase Assays.
(§1) KL-2 EBV-transformed human lymphoblastoid B cells (native JAK3 kinase assays) or insect ovary cells (recombinant JAK3 kinase assays) were lysed with NP-40 lysis buffer (50 mM Tris, pH 8, 150 mM NaCl, 5 mM EDTA, 1% NP-40, 100 μM sodium orthovanadate, 100 μM sodium molybdate, 8 μg/ml aprotinin, 5 μg/ml leupeptin, and 500 μM PMSF) and centrifuged 10 minutes at 13000×g to remove insoluble material. Samples were immunoprecipitated with antisera prepared against JAK3. The antisera were diluted and immune complexes collected by incubation with 15 μl protein A Sepharose. After 4 washes with NP-40 lysis buffer, the protein A Sepharose beads were washed once in kinase buffer (20 mM MOPS, pH 7.0, 10 mM MgCl2) and resuspended in the same buffer. Reactions were initiated by the addition of 25 μCi γ[^32P] ATP (5000 Ci/mMole) and unlabeled ATP to a final concentration of 5 μM. Reactions were terminated by boiling for 4 min in SDS sample buffer. Samples were run on 9.5% SDS polyacrylamide gels and labeled proteins will be detected by autoradiography. Following electrophoresis, kinase gels were dried onto Whatman 3M filter paper and subjected to phosphoimaging on a Molecular Imager (Bio-Rad, Hercules, Calif.) as well as autoradiography on film. For each drug concentration, a kinase activity index (KA) was determined by comparing the kinase activity in phosphorimager units (PIU) to that of the baseline sample. In some experiments, cold kinase assays were performed, as described (Uckun et. al., 1998, Clin. Cancer Res., 4:901-912).

human JAK3 [2] = target: T1, human JAK3; assay: Immune complex kinase assay, JAK3 immunoprecipitated from KL2 EBV-transformed lymphoblastoid B cell line; type: biochemical; conditions: JAK3 immunoprecipitated from KL2 cells
Protocol: as §1, with “Following electrophoresis, kinase gels were dried onto Whatman 3M filter paper and subjected to phosphoimaging on a Molecular Imager (Bio-Rad, Hercules, Calif.) as well as autoradiography on film.” left out, “In some experiments, cold kinase assays were performed, as described (Uckun et. al., 1998, Clin. Cancer Res., 4:901-912).” left out

RBL-2H3 mast cells [3] = assay: IgE/antigen-induced degranulation and mediator release; type: cell-based, rat; conditions: 1 h preincubation, DNP-BSA challenge; at ≧30 μM
Source text: Vehicle treated control RBL-2H3 cells released 45.1±3.1% of their hexosaminidase contents after DNP-BSA challenge. […] Vehicle treated control cells released 11.3±1.3 pg LTC4, and 160±33.0 pg TNFα/10^6 mast cells. The results on LTC4 and TNFα release are expressed as percent of maximum control release from vehicle treated control mast cells. The data points represent the mean±SEM values obtained from 3-6 independent experiments. […] *P<0.05 and **P<0.0001 compared to control as determined by Student's t test.
Supernatants were removed and saved.

RBL-2H3 mast cells [4] = assay: IgE/antigen-induced activation (cell spreading, microtubule organization) by confocal microscopy; type: cell-based, rat; conditions: 30 μM, two hour incubation
Protocol: RBL-2H3 cells were cultured overnight on 22×22 mm coverslips at a cell density of 0.01×10^6/ml with […] DNP-IgE. Sensitized RBL-2H3 cells were then treated with 30 μM WHI-P131, vehicle, or control compounds WHI-P258 and WHI-P112 prior to challenge with DNP-BSA, as described in the legend of FIG. 4. After stimulation with DNP-BSA for 1 hour, cells were fixed in cold methanol for 15 minutes followed by permeabilization with PBS containing 0.1% Triton X-100. […] After washing 3 times with PBS-0.1% Triton X-100, cells were incubated with fluorescein labeled secondary antibody (Zymed, San Francisco, Calif.) for another 40 minutes. Cells were washed three times to remove unbound antibody. DNA labeling was performed by incubation of coverslips with toto-3 (Molecular Probes, Eugene, Oreg.) for 10 minutes. Excessive dye was washed with PBS-0.1% Triton X-100. Cells were visualized under MRC 1024 Laser Scanning Microscope after mounting with Vectashield (Vector laboratories, Inc, Burlingame, Calif.), as previously reported.
Confocol Microscopy: Staining of mast cells with primary and secondary antibodies followed by confocal laser scanning microscopy was performed as previously described in detail (Uckun et. al., 1998, Clin. Cancer Res., 4:901-912). After staining with appropriate primary and secondary antibodies, cells were washed three times to remove unbound antibody. DNA labeling was performed by incubation of coverslips with toto-3 (Molecular Probes, Eugene, Oreg.) for 10 min. Excessive dye was washed with PBS-0.1% triton X-100. Cells were visualized under MRC 1024 Laser Scanning Microscope after mounting with Vectashield (Vector laboratories, Inc, Burlingame, Calif.).
In a systematic effort aimed at elucidating the biologic consequences of JAK3 inhibition in mast cells, we first sought to determine if the JAK3 inhibitor WHI-P131 could prevent the IgE receptor/FcεRI-mediated activation of mast cells. Since the IgE receptor/FcεRI-mediated activation of mast cells results in a distinct morphologic transformation with marked cell spreading due to membrane ruffling, microtubule formation and actin polymerization (Apgar, 1997), we evaluated the effects of WHI-P131 on the activation-associated transformation of shape and surface topography of RBL-2H3 mast cells using confocal laser scanning microscopy (Ghosh et. al., 1998).

[5] = test system: JAK3-dependent STAT activation; assay: EMSA, IL-2 triggered STAT activation in 32Dc11/IL2Rβ cells; type: cell-based; conditions: 10 μg/ml, 32Dc11/IL2Rβ cells
Protocol: Electrophoretic Mobility Shift Assays (EMSAs). EMSAs were performed to examine the effects of dimethoxyquinazoline compounds on cytokine-induced STAT activation (Goodman et. al., 1998). […] Cells were collected after 15 minutes and resuspended in lysis buffer (100 mM Tris-HCl pH 8.0, 0.5% NP-40, 10% glycerol, […], 0.1 mM NaVO3, 50 mM NaF, 150 mM NaCl, 1 mM DTT, 3 μg/ml Aprotinin, 2 μg/ml Pepstatin A, 1 μg/ml Leupeptin and 0.2 mM PMSF). Lysates were precleared by centrifugation for 30 min. Cell extracts (approximately 10 μg) were incubated with 2 μg of poly(dI-dC) for 30 minutes, followed by a 30 minutes incubation with 1ng of poly. nucleotide kinase-^32P labeled double stranded DNA oligonucleotide representing the IRF-1 STAT DNA binding sequence (Santa Cruz Biotechnology, Santa Cruz, Calif.). Samples were resolved by non-denaturing PAGE and visualized by autoradiography.

mast cell = conditions: cited from earlier work

Compound: COc1cc2ncnc(Nc3cccc(Br)c3)c2cc1OC [WHI-P79, 4-(3′-Bromophenyl)-amino-6,7-dimethoxyquinazoline]
- pIC50 (human JAK3 [1]): < 3.52

Compound: COc1cc2ncnc(Nc3cc(Br)c(O)c(Br)c3)c2cc1OC [WHI-P97, 4-(3′,5′-Dibromo-4′-hydroxylphenyl)-amino-6,7-dimethoxyquinazoline]
- pIC50 (human JAK3 [2]): 4.96
- pIC50 (human JAK3 [1]): 4.96

Compound: COc1cc2ncnc(Nc3ccc(C)c(Br)c3)c2cc1OC [WHI-P111, 4-(3′-Bromo-4-methylphenyl)-amino-6,7-dimethoxyquinazoline]
- LTC4 release (RBL-2H3 mast cells [3]): did not inhibit
- TNFα release (RBL-2H3 mast cells [3]): did not inhibit
- β-hexosaminidase release (degranulation) (RBL-2H3 mast cells [3]): did not inhibit
- JAK3 inhibitory activity (in words) (human JAK3 [1]): do not inhibit JAK3
- pIC50 (human JAK3 [1]): < 3.52

Compound: COc1cc2ncnc(Nc3cc(Br)ccc3Br)c2cc1OC [WHI-P112, 4-(2′,5′-Dibromophenyl)-amino-6,7-dimethoxyquinazoline]
- LTC4 release (RBL-2H3 mast cells [3]): did not inhibit
- TNFα release (RBL-2H3 mast cells [3]): did not inhibit
- β-hexosaminidase release (degranulation) (RBL-2H3 mast cells [3]): did not inhibit
- JAK3 inhibitory activity (in words) (human JAK3 [1]): do not inhibit JAK3
- pIC50 (human JAK3 [1]): < 3.70
- JAK3 inhibitory activity (in words) (human JAK3 [1]; listed as WHI-112): does not inhibit JAK3
- IgE/antigen-induced mast cell activation (spreading and microtubule organization) (RBL-2H3 mast cells [4]): unable to produce any significant effects

Compound: COc1cc2ncnc(Nc3ccccc3O)c2cc1OC [WHI-P132, 4-(2′-Hydroxylphenyl)-amino-6,7-dimethoxyquinazoline]
- JAK3 inhibitory activity (in words) (human JAK3 [1]): inactive
- pIC50 (human JAK3 [1]): < 3.52
- JAK3-dependent STAT activation after stimulation with IL-2 [5]: not

Compound: COc1cc2ncnc(Nc3cccc(O)c3)c2cc1OC [WHI-P180, 4-(3′-hydroxyphenyl)-amino-6,7-dimethoxyquinazoline]
- potency relative to WHI-P258 (mast cell; IgE/antigen induced mast cell responses): much more potent
- mast cell degranulation (β-hexasaminidase release) (mast cell; IgE/antigen induced): effectively inhibited
- secretion of newly synthesized mediators (LTC4 release) (mast cell; IgE/antigen induced): effectively inhibited
- pIC50 (human JAK3 [1]): 5.52

Compound: COc1cc2ncnc(Nc3ccccc3)c2cc1OC [WHI-P258, 4-(Phenyl)-amino-6,7-dimethoxyquinazoline]
- JAK3 inhibitory activity (in words) (human JAK3 [1]): lacks JAK3 inhibitory activity
- pIC50 (human JAK3 [1]): < 3.52

Source: patent US6452005B1, “JAK-3 inhibitors for treating allergic disorders” (Parker Hughes Institute, priority 1999, dated 2002)
